# Results from patent US6355799B1, “Substituted benzene compounds, process for their preparation, and herbicidal and defoliant compositions containing them” (ISK Americas Incorporated, priority 1997, dated 2002).
# Experiments:
# Type in all cases: in vivo
# [1] = test system: redroot pigweed (Amaranthus retroflexus, AMARE); assay: Pre-emerge test, greenhouse herbicide activity screening; settings: pre-emerge, 14 days after application, scale 0-100
# In short: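 Plants grown in 10 cm pots of sandy loam mix received acetone-dissolved compounds through a moving flat-fan nozzle. Doses ranged from 15 to 1000 g ai/ha. Pre-emerge pots were seeded one day earlier, post-emerge pots 8–21 days earlier. Fourteen days on, each pot was graded 0–100 for damage.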
# [2] = test system: barnyardgrass (Echinochloa crus-galli, ECHCG); assay: as above; settings: pre-emerge, 14 days after application, scale 0-100
# In short: (§1)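 Visual ratings on a 0-100 scale (0 no damage, 100 all plants dead) were taken at 14 days after treatment. Rates of 15-1000 g ai/ha in acetone, 187 l/ha, were sprayed onto soil one day after planting (pre-emerge) or onto 2-3 leaf plants with 0.25% v/v surfactant (post-emerge).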
# [3] = test system: green foxtail (Setaria viridis, SETVI); assay: as above; settings: pre-emerge, 14 days after application, scale 0-100
# In short: as §1
# [4] = test system: ivyleaf morningglory (Ipomoea hederacea, IPOHE); assay: as above; settings: pre-emerge, 14 days after application, scale 0-100
# In short: as §1
# [5] = test system: johnsongrass (Sorghum halepense, SORHA); assay: as above; settings: pre-emerge, 14 days after application, scale 0-100
# In short: as §1
# [6] = test system: lambsquarters (Chenopodium album, CHEAL); assay: as above; settings: pre-emerge, 14 days after application, scale 0-100
# In short: as §1
# [7] = test system: large crabgrass (Digitaria sanguinalis, DIGSA); assay: as above; settings: pre-emerge, 14 days after application, scale 0-100
# In short: as §1
# [8] = test system: sicklepod (Cassia obtusifolia, CASOB); assay: as above; settings: pre-emerge, 14 days after application, scale 0-100
# In short: as §1
# [9] = test system: velvetleaf (Abutilon theophrasti, ABUTH); assay: as above; settings: pre-emerge, 14 days after application, scale 0-100
# In short: as §1
# [10] = test system: field corn (Zea mays L., var. Dekalb 535, CORN); assay: Pre-emerge test, crop safety; settings: pre-emerge, 14 days after application, scale 0-100
# In short: (§2)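 Sandy loam pots; pre-emerge: sown 1 d pre-spray, surface-watered after, then bottom-watered. Post-emerge: sown 8–21 d before, 2–3 leaf stage, + 0.25% v/v NIS, bottom-watered. Acetone, 187 l/ha track spray, 15–1000 g ai/ha. 0–100 injury score, day 14.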
# [11] = test system: upland rice (Oryza sp., var. Tebonnet, RICE); assay: Pre-emerge test, crop safety; settings: pre-emerge, 14 days after application, scale 0-100
# In short: as §2
# [12] = test system: barnyardgrass (Echinochloa crus-galli, ECHCG); assay: Post-emerge test, greenhouse herbicide activity screening; settings: post-emerge, 14 days after application, rating scale 0-100
# In short: (§3)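 Each test used a mechanized track sprayer delivering 187 l/ha of acetone solution at 15–1000 g ai/ha. Post-emerge foliage at 2–3 leaves was treated with added 0.25% v/v non-ionic surfactant and bottom-watered only. Injury was assessed on day 14, where 100 means total kill.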
# [13] = test system: common ragweed (Ambrosia artemisizfolia L., AMBEL); assay: as above; settings: post-emerge, 14 days after application, rating scale 0-100
# In short: as §3
# [14] = test system: green foxtail (Setaria viridis, SETVI); assay: as above; settings: post-emerge, 14 days after application, rating scale 0-100
# In short: as §3
# [15] = test system: ivyleaf morningglory (Ipomoea hederacea, IPOHE); assay: as above; settings: post-emerge, 14 days after application, rating scale 0-100
# In short: as §3
# [16] = test system: johnsongrass (Sorghum halepense, SORHA); assay: as above; settings: post-emerge, 14 days after application, rating scale 0-100
# In short: as §3
# [17] = test system: lambsquarters (Chenopodium album, CHEAL); assay: as above; settings: post-emerge, 14 days after application, rating scale 0-100
# In short: as §3
# [18] = test system: large crabgrass (Digitaria sanguinalis, DIGSA); assay: as above; settings: post-emerge, 14 days after application, rating scale 0-100
# In short: as §3
# [19] = test system: redroot pigweed (Amaranthus retroflexus, AMARE); assay: as above; settings: post-emerge, 14 days after application, rating scale 0-100
# In short: as §3
# [20] = test system: sicklepod (Cassia obtusifolia, CASOB); assay: as above; settings: post-emerge, 14 days after application, rating scale 0-100
# In short: as §3
# [21] = test system: velvetleaf (Abutilon theophrasti, ABUTH); assay: as above; settings: post-emerge, 14 days after application, rating scale 0-100
# In short: as §3
# [22] = test system: field corn (Zea mays L., var. Dekalb 535, CORN); assay: Post-emerge test, crop safety; settings: post-emerge, 14 days after application, rating scale 0-100
# In short: as §1
# [23] = test system: upland rice (Oryza sp., var. Tebonnet, RICE); assay: Post-emerge test, crop safety; settings: post-emerge, 14 days after application, rating scale 0-100
# In short: as §1
compound,measurement,setting,value
COc1c(Cl)cc(F)c(-n2c(=O)cc(C(F)(F)F)n(C)c2=O)c1NC(=O)CSC(C)C [2-173],phytotoxicity rating AMARE,[1]; 63 g ai/ha,30
same,phytotoxicity rating AMARE,[1]; 250 g ai/ha,100
same,phytotoxicity rating ECHCG,[2]; 63 g ai/ha,0
same,phytotoxicity rating ECHCG,[2]; 250 g ai/ha,20
same,phytotoxicity rating SETVI,[3]; 63 g ai/ha,40
same,phytotoxicity rating SETVI,[3]; 250 g ai/ha,80
same,phytotoxicity rating IPOHE,[4]; 63 g ai/ha,0
same,phytotoxicity rating IPOHE,[4]; 250 g ai/ha,40
same,phytotoxicity rating SORHA,[5]; 63 g ai/ha,0
same,phytotoxicity rating SORHA,[5]; 250 g ai/ha,10
same,phytotoxicity rating CHEAL,[6]; 63 g ai/ha,90
same,phytotoxicity rating CHEAL,[6]; 250 g ai/ha,100
same,phytotoxicity rating DIGSA,[7]; 63 g ai/ha,30
same,phytotoxicity rating DIGSA,[7]; 250 g ai/ha,80
same,phytotoxicity rating CASOB,[8]; 63 g ai/ha,30
same,phytotoxicity rating CASOB,[8]; 250 g ai/ha,70
same,phytotoxicity rating ABUTH,[9]; 63 g ai/ha,95
same,phytotoxicity rating ABUTH,[9]; 250 g ai/ha,100
same,phytotoxicity rating CORN (crop damage),[10]; 63 g ai/ha,0
same,phytotoxicity rating CORN (crop damage),[10]; 250 g ai/ha,20
same,phytotoxicity rating RICE (crop damage),[11]; 63 g ai/ha,0
same,phytotoxicity rating RICE (crop damage),[11]; 250 g ai/ha,50
same,ECHCG phytotoxicity rating,[12]; 63 g ai/ha,0
same,ECHCG phytotoxicity rating,[12]; 250 g ai/ha,0
same,AMBEL phytotoxicity rating,[13]; 63 g ai/ha,30
same,AMBEL phytotoxicity rating,[13]; 250 g ai/ha,50
same,SETVI phytotoxicity rating,[14]; 63 g ai/ha,0
same,SETVI phytotoxicity rating,[14]; 250 g ai/ha,0
same,IPOHE phytotoxicity rating,[15]; 63 g ai/ha,100
same,IPOHE phytotoxicity rating,[15]; 250 g ai/ha,80
same,SORHA phytotoxicity rating,[16]; 63 g ai/ha,0
same,SORHA phytotoxicity rating,[16]; 250 g ai/ha,0
same,CHEAL phytotoxicity rating,[17]; 63 g ai/ha,40
same,CHEAL phytotoxicity rating,[17]; 250 g ai/ha,65
same,DIGSA phytotoxicity rating,[18]; 63 g ai/ha,0
same,DIGSA phytotoxicity rating,[18]; 250 g ai/ha,0
same,AMARE phytotoxicity rating,[19]; 63 g ai/ha,50
same,AMARE phytotoxicity rating,[19]; 250 g ai/ha,50
same,CASOB phytotoxicity rating,[20]; 63 g ai/ha,50
same,CASOB phytotoxicity rating,[20]; 250 g ai/ha,70
same,ABUTH phytotoxicity rating,[21]; 63 g ai/ha,60
same,ABUTH phytotoxicity rating,[21]; 250 g ai/ha,100
same,CORN phytotoxicity rating (crop damage),[22]; 63 g ai/ha,0
same,CORN phytotoxicity rating (crop damage),[22]; 250 g ai/ha,25
same,RICE phytotoxicity rating (crop damage),[23]; 63 g ai/ha,0
same,RICE phytotoxicity rating (crop damage),[23]; 250 g ai/ha,10
